From patent US20110151025A1, “Compositions Comprising N-Halogenated or N,N-Dihalogenated Amine for Treatment and Prophylaxis of Bronchopulmonary Infections” (NOVABAY PHARMACEUTICALS, INC., priority 2008, published 2011)
Entries after “also recorded” stand apart in the source; their conditions may differ. Like-named read-outs stand apart in the source and are kept apart here.

What was measured:
[1] = 1% aqueous NCT solution, human eyes; cited from earlier work
[2] = Intraperitoneal injection in Swiss mice; type: in vivo; conditions: 1% NCT
Source text: NCT is relatively safe and well-tolerated by mammals. For example, as a mild oxidant, tolerability of 1% aqueous NCT solution by human and animal tissue is good.

[3] = purulent coated crural ulcers; cited from earlier work
viral bronchitis = experiment: Inhalation of 1% NCT by human volunteers suffering from viral bronchitis; type: in vivo
[4] = system: infectious conjunctivitis; conditions: in vivo; cited from earlier work
[5] = chronic rhinosinusitis, pilot study; cited from earlier work
all classes of pathogens = conditions: cited from earlier work
[6] = system: omniresistant Pseudomonas aeruginosa; conditions: NCT irrigations, three patients; cited from earlier work
[7] = transtympanal injection of 0.1%, 1%, and 10% NCT, mice; cited from earlier work
[8] = 1% aqueous NCT solution, rabbit eyes; cited from earlier work
[9] = Tolerability of inhaled haloamines in anesthetized pig model; conditions: for Arterial partial pressure of oxygen (PaO2) compared to controls: 4 inhalations of 5 mL, hourly over 4 hours; for Heart rate compared to controls: 4 hours measurement
Method: A study was designed to evaluate the tolerability of inhalative haloamines in a pig model. NCT was used as a representative haloamine. Anesthetized pigs inhaled test solutions of 1% NCT (n=7), 5% NCT (n=6), or 1% NCT plus 1% ammonium chloride (n=6), and 0.9% saline solution as a control (n=7), respectively. Applications were performed every hour over a four-hour time period, i.e., four inhalations in total, with 5 mL each.
Anesthetized pigs inhaled test solutions of 1% NCT (n=7), 5% NCT (n=6), or 1% NCT plus 1% ammonium chloride (n=6), and 0.9% saline solution as a control (n=7), respectively. Applications were performed every hour over a four-hour period, i.e., 4 inhalations in total, with 5 mL each.
Anesthetized pigs inhaled test solutions of 1% NCT (n=7), 5% NCT (n=6), or 1% NCT plus 1% ammonium chloride (n=6), and 0.9% saline solution as a control (n=7), respectively. Applications were performed every hour within four hours, i.e., 4 inhalations in total, with 5 mL each.
Anesthetized pigs inhaled test solutions of 1% NCT (n=7), 5% NCT (n=6), or 1% NCT plus 1% ammonium chloride (n=6), and 0.9% saline solution as a control (n=7), respectively. Applications were performed every hour over a four-hour period of time, i.e., 4 inhalations in total, with 5 mL each.

external otitis = conditions: human external otitis; cited from earlier work
Staphylococcus aureus = conditions: local administration, mouse model; cited from earlier work
[10] = system: proinflammatory cytokines; conditions: cited from earlier work

O=S(=O)(O)CCNCl [NCT, N-chlorotaurine]
Tolerability [1]: good
Tolerated intraperitoneal dose [2]: tolerated up to one mL 1% NCT
Pain versus chloramine T [3]: significantly less pain
Toxicity versus chloramine T [3]: less toxic than chloramine T
Symptoms experienced by patients (viral bronchitis; 5 mL of 1% NCT inhaled for 10 minutes 3 times daily for three days): easier breathing, less coughing and less expectoration
Side effects (symptoms for bronchoconstriction, cough, dyspnea) (viral bronchitis; 5 mL of 1% NCT inhaled for 10 minutes 3 times daily for three days, three volunteers): no side effects detectable
Development of bronchitis after pharyngitis (viral bronchitis; one patient, NCT used as a treatment for pharyngitis): did not develop bronchitis
Efficacy in infectious conjunctivitis [4]: data indicating efficacy
Tolerability [5]: good tolerability
Antimicrobial spectrum (all classes of pathogens): broad-spectrum antimicrobial activity
Induction of resistance of pathogens (all classes of pathogens): resistance of pathogens is not induced
Eradication of bacteria from the urinary bladder [6]: possible to eradicate bacteria
Damage of the inner ear [7]: did not cause damage of the inner ear
Tolerability [8]: good
Pulmonary artery pressure compared to saline group ([9]; 1% NCT): tended to result in even better values
Alveolo-arterial difference of oxygen partial pressure (AaDO2) ([9]; 1% NCT, 4-hour measurement, controls 33.7±9.03, p=0.016): 21.0±13.09
Arterial partial pressure of oxygen (PaO2) compared to controls ([9]; 1% NCT): No difference in PaO2 to controls
Heart rate compared to controls ([9]; 1% NCT): not significantly different from controls
Tolerability in the bronchopulmonary system upon inhalation ([9]; 1% NCT, conclusion from pig and volunteer results): very well tolerated
Pulmonary artery pressure compared to controls ([9]; 5% NCT): became higher than in the control group; also recorded: significantly higher values
Tolerability upon inhalation ([9]; 5% NCT): very well tolerated
Alveolo-arterial difference of oxygen partial pressure (AaDO2) compared to the controls ([9]; 5% NCT (p=0.99)): not different
Arterial partial pressure of oxygen (PaO2) compared to controls ([9]; 5% NCT): No difference in PaO2 to controls
Heart rate compared to controls ([9]; 5% NCT): not significantly different from controls
Efficacy versus standard medication (external otitis): more effective than a standard medication
Inhibition of septic arthritis (Staphylococcus aureus): inhibited septic arthritis
Effect on proinflammatory cytokines [10]: down-regulate proinflammatory cytokines
